In brackets after ≈: the same amount, converted by molar mass. Values belong to the compound of their own block, whether it stands above or below them.
How the values were obtained:
Assay in all cases: ≥ marks a high value that may be exact or a test limit, other limits are often not marked, values filed in µg/mL are converted to µM
Staphylococcus aureus = system: Staphylococcus aureus
Escherichia coli JM109 = system: Escherichia coli JM109
[1] = system: Staphylococcus aureus ATCC 6538P
[2] = system: Pseudomonas aeruginosa BNCC 125486
[3] = system: Pseudomonas aeruginosa PAO1
Listeria monocytogenes = system: Listeria monocytogenes
[4] = system: Staphylococcus aureus BNCC 186335
[5] = system: Escherichia coli BNCC 133264
Escherichia coli K-12 = system: Escherichia coli K-12
[6] = system: Staphylococcus aureus USA 300
Bacillus subtilis 168 = system: Bacillus subtilis 168
Escherichia coli = system: Escherichia coli
[7] = system: Staphylococcus aureus T7/20
[8] = system: Klebsiella pneumoniae KK3 9904
[9] = system: Proteus mirabilis ATCC 25933
[10] = system: Enterobacter cloacae HNTCC 53001
[11] = system: Enterococcus faecalis ATCC 29212
[12] = system: Pseudomonas aeruginosa ATCC 27853
[13] = system: Staphylococcus epidermidis RP62A
[14] = system: Staphylococcus aureus NCTC 8325
[15] = system: Escherichia coli ATCC 25922
[16] = system: Candida albicans ATCC 90028
[17] = system: Cutibacterium acnes ATCC 33257
[18] = system: Escherichia coli ATCC 25726
[19] = system: Staphylococcus aureus ATCC 25923
[20] = system: Cutibacterium acnes ATCC 15725
[21] = system: Acinetobacter baumannii NM8
[22] = system: Acinetobacter baumannii NM75
[23] = system: Acinetobacter baumannii NM109
[24] = system: Cutibacterium acnes ATCC 18380
[25] = system: Cutibacterium acnes ATCC 11828
[26] = system: Cutibacterium acnes ATCC 29903
[27] = system: Cutibacterium acnes ATCC 50247
[28] = system: Cutibacterium acnes ATCC 32548
[29] = system: Acinetobacter baumannii NM124
[30] = system: Cutibacterium acnes ATCC 31766
[31] = system: Acinetobacter baumannii NM35
[32] = system: Streptococcus mutans UA159
[33] = system: Pseudomonas aeruginosa PAK
[34] = system: Streptococcus sanguinis NY101
[35] = system: Streptococcus gordonii Challis DL1
[36] = system: Streptococcus mitis ATCC 903
[37] = system: Streptococcus pyogenes ATCC 19615
[38] = system: Bacillus cereus ATCC 11778
[39] = system: Staphylococcus epidermidis ATCC 12228
[40] = system: Salmonella enterica subsp. arizonae ATCC 13314
[41] = system: Micrococcus luteus ATCC 9341
Escherichia coli O157 = system: Escherichia coli O157
[42] = system: Escherichia coli ATCC 35218
[43] = system: Pseudomonas aeruginosa ATCC 9027

SMILES: CC[C@H](C)[C@H](NC(=O)[C@H](C)NC(=O)[C@H](CC(C)C)NC(=O)[C@H](CS)NC(=O)[C@H](Cc1cnc[nH]1)NC(=O)[C@H](C)N)C(=O)NCC(=O)N[C@@H](CCCN=C(N)N)C(=O)N[C@@H](CCCN=C(N)N)C(N)=O [AHCLAIGRR]
MIC (Staphylococcus aureus): > 64.2 µM | MIC (Escherichia coli JM109): 16.1 µM | MIC [1]: 6.02 µM

SMILES: CC[C@H](C)[C@H](NC(=O)[C@H](CCCCN)NC(=O)[C@H](CCCN=C(N)N)NC(=O)[C@@H](NC(=O)[C@H](CC(C)C)NC(=O)[C@H](CCCCN)NC(=O)[C@H](CC(C)C)NC(=O)[C@@H](NC(=O)[C@H](CCCCN)NC(=O)CNC(=O)[C@H](Cc1ccccc1)NC(=O)[C@@H](N)Cc1ccccc1)C(C)C)[C@@H](C)CC)C(=O)N[C@@H](Cc1ccccc1)C(N)=O [FFGKVLKLIRKIF]
MIC [2]: ≥ 79.5 µM | MIC (Staphylococcus aureus): 39.8 µM (≈ 64 µg/mL) | MIC [3]: > 100 µM | MIC (Listeria monocytogenes): 4.97 µM (≈ 8 µg/mL) | MIC [4]: ≥ 39.8 µM | MIC [5]: ≥ 79.5 µM | MIC (Escherichia coli K-12): ≥ 100 µM | MIC [6]: 3.1 µM (≈ 4.99 µg/mL) | MIC (Bacillus subtilis 168): ≥ 100 µM | MIC (Escherichia coli): > 79.5 µM

SMILES: CC[C@H](C)[C@H](N)C(=O)N[C@@H](CCCCN)C(=O)N[C@@H](CCC(N)=O)C(=O)N[C@@H](CC(C)C)C(=O)N[C@@H](CC(C)C)C(=O)N[C@@H](Cc1cnc[nH]1)C(=O)N[C@@H](Cc1ccccc1)C(=O)N[C@@H](Cc1ccccc1)C(=O)N[C@@H](CCC(N)=O)C(=O)N[C@@H](CCCN=C(N)N)C(=O)N[C@@H](Cc1ccccc1)C(=O)NCC(=O)NCC(=O)NCC(=O)N[C@@H](Cc1ccccc1)C(=O)N[C@H](C(=O)N[C@@H](CCCCN)C(=O)N[C@@H](Cc1cnc[nH]1)C(=O)N[C@@H](Cc1ccccc1)C(=O)N[C@H](C(=O)N[C@@H](Cc1cnc[nH]1)C(=O)N[C@@H](CCCN=C(N)N)C(=O)N[C@@H](Cc1ccccc1)C(N)=O)[C@@H](C)CC)[C@@H](C)CC [IKQLLHFFQRFGGGFIKHFIHRF]
MIC [32]: 2.78 µM (≈ 8 µg/mL) | MIC (Staphylococcus aureus): 21.7 µM (≈ 62.5 µg/mL) | MIC [33]: ≥ 43.5 µM | MIC [34]: 11.1 µM (≈ 32 µg/mL) | MIC [35]: 11.1 µM (≈ 32 µg/mL) | MIC [36]: 5.57 µM (≈ 16 µg/mL)

SMILES: CC(C)C[C@H](NC(=O)[C@H](CC(C)C)NC(=O)[C@H](CCC(N)=O)NC(=O)[C@H](Cc1ccc(O)cc1)NC(=O)[C@H](CCCN=C(N)N)NC(=O)CNC(=O)[C@H](C)NC(=O)[C@H](C)NC(=O)[C@@H](NC(=O)[C@H](CO)NC(=O)[C@H](Cc1ccc(O)cc1)NC(=O)[C@@H](NC(=O)[C@H](CCCCN)NC(=O)[C@H](Cc1ccc(O)cc1)NC(=O)[C@H](CCCN=C(N)N)NC(=O)[C@@H]1CCCN1C(=O)[C@H](CC(C)C)NC(=O)[C@H](Cc1ccc(O)cc1)NC(=O)[C@@H](NC(=O)[C@@H](N)CCCCN)C(C)C)C(C)C)[C@@H](C)O)C(N)=O [KVYLPRYKVYSTAAGRYQLL]
MIC [37]: ≥ 150 µM | MIC [38]: ≥ 150 µM | MIC [39]: > 150 µM | MIC [40]: ≥ 150 µM | MIC [41]: ≥ 150 µM | MIC (Escherichia coli O157): ≥ 150 µM | MIC [42]: ≥ 150 µM | MIC [11]: > 150 µM | MIC [43]: > 150 µM | MIC [15]: > 150 µM

Other lines, results leading:

MIC [7]: 25 µM (≈ 55.7 µg/mL) | MIC [8]: ≥ 100 µM | MIC [9]: ≥ 100 µM | MIC [10]: ≥ 50 µM | MIC [11]: 50 µM (≈ 111 µg/mL) | MIC [12]: 50 µM (≈ 111 µg/mL) | MIC [13]: 12.5 µM (≈ 27.8 µg/mL) | MIC [14]: 25 µM (≈ 55.7 µg/mL) | MIC [15]: 25 µM (≈ 55.7 µg/mL) | MIC [16]: ≥ 50 µM
SMILES: CC[C@H](C)[C@H](NC(=O)[C@H](CCCCN)NC(=O)[C@H](CO)NC(=O)[C@@H](NC(=O)[C@H](CC(C)C)NC(=O)[C@H](CO)NC(=O)[C@@H]1CCCN1C(=O)[C@H](CC(C)C)NC(=O)[C@H](C)NC(=O)[C@H](CO)NC(=O)[C@H](C)NC(=O)[C@H](CC(C)C)NC(=O)[C@H](C)NC(=O)CNC(=O)[C@@H](NC(=O)[C@@H](NC(=O)[C@H](CO)NC(=O)CNC(=O)[C@H](CC(C)C)NC(=O)[C@@H](N)Cc1ccccc1)[C@@H](C)CC)C(C)C)[C@@H](C)CC)C(=O)N[C@@H](CCCN=C(N)N)C(=O)N[C@@H](CC(N)=O)C(N)=O [FLGSIVGALASALPSLISKIRN]

MIC [17]: 12.5 µM (≈ 23.5 µg/mL) | MIC [18]: 12.5 µM (≈ 23.5 µg/mL) | MIC [19]: 12.5 µM (≈ 23.5 µg/mL) | MIC [20]: 12.5 µM (≈ 23.5 µg/mL) | MIC [21]: 6 µM (≈ 11.3 µg/mL) | MIC [22]: 12.5 µM (≈ 23.5 µg/mL) | MIC [23]: 12.5 µM (≈ 23.5 µg/mL) | MIC [24]: ≥ 50 µM | MIC [25]: 12.5 µM (≈ 23.5 µg/mL) | MIC [26]: 25 µM (≈ 47.1 µg/mL) | MIC [27]: 6 µM (≈ 11.3 µg/mL) | MIC [28]: 12.5 µM (≈ 23.5 µg/mL) | MIC [29]: 12.5 µM (≈ 23.5 µg/mL) | MIC [30]: 6 µM (≈ 11.3 µg/mL) | MIC [31]: 6 µM (≈ 11.3 µg/mL) | MIC [16]: ≥ 50 µM
SMILES: CC[C@H](C)[C@H](NC(=O)[C@@H](NC(=O)CN)C(C)C)C(=O)N[C@@H](CCCCN)C(=O)N[C@@H](CO)C(=O)N[C@H](C(=O)N[C@@H](CC(C)C)C(=O)N[C@@H](CCCCN)C(=O)NCC(=O)N[C@H](C(=O)N[C@@H](C)C(=O)N[C@@H](CCCCN)C(=O)N[C@H](C(=O)N[C@H](C(=O)N[C@@H](C)C(=O)N[C@@H](CC(C)C)C(=O)NCC(=O)N[C@@H](CCSC)C(=O)N[C@@H](CC(C)C)C(N)=O)C(C)C)[C@@H](C)O)C(C)C)C(C)C [GVIKSVLKGVAKTVALGML]
